Data taken from US12697366B2, “Thermogenic compositions and methods” (Ohio State Innovation Foundation, priority 2016, dated 2026).

Experiments:
[1] = system: 3T3-L1 preadipocytes; test: FD-glucose uptake in 3T3-L1 preadipocytes; type: cell-based, mouse; conditions: for glucose uptake compared to non-stimulated 3T3-L1 preadipocytes: 30 mins, insulin 10 μg/ml, EREG 50 ng/ml, forskolin 4 μg/ml
Protocol: Non-differentiated, 90% confluent 3T3-L1 cells were starved with glucose-deprived medium for 40 min. Then cells were treated in the presence and absence of different concentrations of nanoscaffold #2 and bovine insulin (200 μg/mL), all of reagents dissolved in the same glucose-deprived medium but containing fluorescent-D (FD)-glucose for 80 min. Thereafter, the FD glucose uptake was measured according to manufacturer's instructions (Cayman Chemical, USA, cat #600471). […] Non-differentiated, 90% confluent 3T3-L1 cells treated in the presence and absence of different concentrations of nanoscaffold #2 and bovine insulin (10 μg/mL) or mouse epiregulin (EREG, 0.05 μg/mL) and incubated for 24 h. Then cells were starved with glucose-deprived medium for 40 min and, then incubated with fluorescent-D (FD)-glucose for 80 min. Thereafter, the FD glucose uptake was measured according to manufacturer's instructions (Cayman Chemical, USA, cat #600471). Data are shown as percent of uptake in the presence of insulin (100%).
Non-differentiated, 90% confluent 3T3-L1 cells treated in the presence of bovine insulin (10 μg/mL), mouse epiregulin (EREG, 0.05 μg/mL), or their combinations and incubated for 24 h. Then cells were starved with glucose-deprived medium for 40 min and, then incubated with fluorescent-D (FD)-glucose for 80 min. Thereafter, the FD glucose uptake was measured according to manufacturer's instructions (Cayman Chemical, USA, cat #600471).
Non-differentiated, 90% confluent 3T3-L1 cells were starved with glucose-deprived medium for 50 min. Then cells were treated in the presence and absence of different concentrations of mouse recombinant IGFBP4 with and without nanoscaffold #2 and human insulin (10 μg/mL). All of reagents were dissolved in the same glucose-deprived medium but containing fluorescent-D (FD)-glucose for 90 min. Thereafter, the FD glucose uptake was measured according to manufacturer's instructions (Cayman Chemical, USA, cat #600471).
Glucose uptake assay was performed using glucose uptake cell-based assay kit (Cayman Chemical, Ann Arbor, MI). 3T3-L1 or human preadipocytes were cultured at a density of 5×10^4 per well into a 96-well plate (n=7) in high glucose media and grown overnight. Old cell culture medium was removed the next day and washed with PBS to remove residual glucose. Supplied 2-deoxy-2-[(7-nitro-2,1,3-benzoxadiazol-4-yl)amino]-D-glucose) (2-NBDG) was diluted to 150 μg/mL in DMEM medium without glucose, phenol red, L-glutamine, sodium pyruvate, and HEPES (Life technologies, Grand Island, New York). 100 μL of 2-NBDG glucose free medium with or without recombinant EREG and other treatments was added to the plated cells. After incubating at 37° C. for 30 minutes, cells were washed gently two times with 200 μL of glucose assay buffer. 100 μL of the assay buffer was added to each well and measured for fluorescence at an excitation/emission of 485/535 nm.
Fluorescence glucose uptake (FD-glucose assay) was performed as described PMID: 32065973, using insulin, 1.7 μM and different AACs at concentration 0.1 μM.
FD-glucose uptake in mouse 3T3-L1 preadipocytes (n=8 per treatment) treated with vehicle (Veh; PBS, open bar) or hINS (1.7 μM), mouse leptin (mLep; 12.5 nM, hatched bar), or AAC2 (0.1 μM black bar) in the presence and absence of GLUT1 inhibitor (BAY-876; 10 nM in DMSO). Cells were pre-treated with or without BAY-876 for 40 min and then FD glucose and treatment reagents were added for additional 80 min of incubation. Data (%) was normalized to FD-glucose uptake in control (Veh) 3T3-L1 cells without inhibitor (100%). Student's independent t-test.

[2] = system: GLUT4; test: GLUT4-GFP translocation in transfected NIH-3T3 cells (confocal microscopy); type: cell-based; conditions: insulin 10 μg/mL, nanoscaffold 10 μM
Excerpt: FIGS. 30A to 30D show translocation of GLUT4 (the major glucose transporter of adipocytes). Non-differentiated NIH-3[…][…]-GFP plasmid ([…] #52872) on Petri-35 dishes with coverslip ([…], cat #[…]-1.5-14-C, USA). […] FIG. 30A: GLUT4 (white vesicles) in cells (arrow) treated with vehicle are mainly in the cytosol. […] All images were taken at 60× magnification.

Substance	glucose uptake compared to non-stimulated 3T3-L1 preadipocytes [1] [%]	glucose uptake in preadipocytes ([1]; hINS 1.7 μM, AAC2 0.1 μM, 80 min, FIG. 42A)	GLUT4 translocation [2]	glucose uptake, dose dependence ([1]; different EREG concentrations)
insulin: insulin (bovine or human)	174	increase	translocated from cytosol to membrane	
EREG: Epiregulin, member of the epidermal growth factor family; recombinant mouse or human protein	187			dose-dependent fashion
